Patent US20080221131A1, “THIENOPYRIMIDINEDIONES AND THEIR USE IN MODULATION OF AUTOIMMUNE DISEASE” (priority 2003, published 2008)

Tested on: PMA/ionomycin-stimulated PBMC proliferation
Assay: Inhibition of PMA/ionomycin-stimulated peripheral blood mononuclear cell proliferation
Assay type: cell-based
Settings: human PBMC, PMA 0.5 ng/ml + ionomycin 500 ng/ml, 72 hours, 3H-thymidine incorporation; read-out: PIA50 (the source's name) (converted)
Protocol: Inhibition of PMA/Ionomycin-Stimulated Peripheral Blood Mononuclear Cell Proliferation
The assay for PMA/ionomycin-stimulated PBMC proliferation was performed in 96-well flat-bottomed microtitre plates. Compounds were prepared as 10 mM stock solutions in dimethyl sulfoxide. A 50-fold dilution of this was prepared in RPMI and serial dilutions were prepared from this solution. 10 μl of the 50-fold diluted stock, or dilutions of it, were added to the well to give concentrations in the assay starting at 9.5 μM and going down. Into each well was placed 1×10^5 PBMC, prepared from human peripheral blood from a single donor, in RPMI1640 medium supplemented with 10% human serum, 2 mM glutamine and penicillin/streptomycin. Phorbol myristate acetate (PMA) (0.5 ng/ml final concentration) and ionomycin (500 ng/ml final concentration) were added to these cells in supplemented RPMI1640 medium (as above) so that the final volume of the assay was 0.2 ml. The cells were incubated at 37° C. in a humidified atmosphere at 5% carbon dioxide for 72 hours. ^3H-Thymidine (0.5 μCi) was added for the final 6 hours of the incubation. The level of radioactivity incorporated by the cells was then determined and this is a measure of proliferation.

SMILES | IC50 [nM]
Cc1nn(-c2ncccn2)c(C)c1Cc1sc2c(c1C(=O)N1C[C@H](O)CO1)c(=O)n(C)c(=O)n2C(C)C [Example 1, 6-[[3,5-dimethyl-1-(2-pyrimidinyl)-1H-pyrazol-4-yl]methyl]-5-[[(4S)-4-hydroxy-2-isoxazolidinyl]carbonyl]-3-methyl-1-(1-methylethyl)thieno[2,3-d]pyrimidine-2,4(1H,3H)-dione] | 5.01
Cc1nn(-c2nccs2)c(C)c1Cc1sc2c(c1C(=O)N1C[C@H](O)CO1)c(=O)n(C)c(=O)n2C(C)C [Example 3, (S)-2-[[6-[[3,5-Dimethyl-1-(2-thiazolyl)-1H-pyrazol-4-yl]methyl]-1,2,3,4-tetrahydro-3-methyl-1-(1-methylethyl)-2,4-dioxothieno[2,3-d]pyrimidin-5-yl]carbonyl]-4-isoxazolidinol] | 0.851
